Test results as given in patent US20250382631A1, “PROTAC-CID SYSTEMS FOR USE IN MULTIPLEX GENE REGULATION” (William Marsh Rice University, priority 2022, published 2025).

Key:
[1] = tested on: Cre-mediated GFP expression in HEK293T cells; test: Inducible Cre site-specific DNA recombination, LoxP-STOP-LoxP-GFP reporter; format: cell-based, human
Procedure: Fluorescence assay using flow cytometry analysis. Cells were treated with 0.05% Trpsin EDTA (Thermo Fisher Scientific no. 25300054) or TrypLE (Thermo Fisher Scientific no. 12605028) after transfection and centrifuged at 3000 g for 5 min. Supernatant was removed and the cell pellet was resuspended with 200 μL phosphate buffered saline (PBS) without calcium and magnesium (Thermo Fisher Scientific no. 10010023). Cells were transferred into 12×75 mm flow tubes (Global Scientific no. 110410). Cells were analyzed by MA900 flow cytometry (SONY). 405 nm laser (FL6 filter) was used for testing the BFP channel. 488 nm (FL1 filter) was used for testing the EYFP and GFP channel. Automated alignment using Automatic Setup Beads kit (SONY no. LE-B3001) is performed before running samples. In FIGS. 3A, 3B, and 17, experiments were performed under 2% FSC, 17% BSC, 24% FL1. In FIG. 18, experiments were performed under 2% FSC, 17% BSC, 27% FL1. All the other experiments were performed under 2% FSC, 17% BSC, 24% FL1 and 27% FL6. Flow cytometry data was processed and analyzed by FlowJo 10. Events were first gated with forward scatter-Area (FSC-A) and side scatter-Area (SSC-A) to select viable cells and remove the debris and dead cells. Cells were further gated with FSC-A and FSC-Height (FSC-H) for selecting single cells. The mean intensity of the reporter fluorescent protein (BFP and EYFP) in viable and single cell populations were calculated by FlowJo 10 as the mean of FL6-A and FL1-A. When calculating the fold change of relative fluorescence units (RFU), the relative fluorescence units of EYFP was calculated by dividing the mean of fluorescence intensity of EYFP with the mean of BFP fluorescence intensity for normalization as the following formula: […]
Transfection and microscopy. […]

wild-type FKBP12 = wild-type FKBP12 (Homo sapiens, UniProt P62942); conditions: refs (32, 36); cited from earlier work
[2] = tested on: luciferase expression in the liver of FVB mice injected with Virus a and Virus b; test: In vivo PROTAC-CID gene activation via AAV, IVIS bioluminescence imaging
Procedure: AAV production and Mouse for in vivo delivery. […] FVB mice were purchased from the Jackson Laboratory.
IVIS imaging system and quantification. Luciferase […] intensity was measured by the IVIS imaging system (PerkinElmer). Mice were anesthetized with a mixture of isoflurane and oxygen. and then intraperitoneally (i.p.) injected with D-luciferin (15 mg/ml, GoldBio no. LUCNA-100). 5 mins after the D-luciferin injection, mice were imaged with IVIS imaging system. Quantitative analysis of imaging signals (luminescence counts) was processed by Living Imaging software (PerkinElmer).

[3] = after MZ1 administration, FIG. 23

wild-type FKBP12, sequence (P62942 whole entry, species assumed): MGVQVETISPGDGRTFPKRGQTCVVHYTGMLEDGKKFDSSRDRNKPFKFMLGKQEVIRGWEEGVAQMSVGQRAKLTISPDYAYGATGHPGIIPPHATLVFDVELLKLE

SMILES | GFP signal, two-layer genetic circuit driving Cre ([1]; 100 nM dTAG-13 or 1 μM dBRD9, 2 days, FIGS. 3A and 17) | GFP expression, three-layer circuit (Dre, Rox-STOP-Rox-Cre) ([1]; FIG. 3B) | degradation of wild-type FKBP12 (wild-type FKBP12) | increase of the luciferase expression in the liver compared with the group without MZ1 ([2]; 10 mg/kg MZ1 intraperitoneally, 25 days after AAV, imaging 6 h post-MZ1, FIG. 4E) | Fluc expression after second MZ1 injection ([2]; second injection ten days after the first, 50 mg/kg i.p., FIGS. 4G and 4H) | abnormality or body weight change [3]
CC[C@H](C(=O)N1CCCC[C@H]1C(=O)O[C@H](CCc1ccc(OC)c(OC)c1)c1ccccc1OCC(=O)NCCCCCCOc1cccc2c1C(=O)N(C1CCC(=O)NC1=O)C2=O)c1cc(OC)c(OC)c(OC)c1 (stereo partly drawn) [dTAG-13] | strong GFP signal | robust GFP expression only in the presence of dTAG-13 | do not degrade wild-type FKBP12 | – | – | –
Cc1ncsc1-c1ccc(CNC(=O)[C@@H]2C[C@@H](O)CN2C(=O)[C@@H](NC(=O)COCCOCCOCCNC(=O)C[C@@H]2N=C(c3ccc(Cl)cc3)c3c(sc(C)c3C)-n3c(C)nnc32)C(C)(C)C)cc1 [MZ1] | – | – | – | ~7 fold | elevated expression of Fluc with a comparable gene activation level as the first administration | no abnormality or body weight change
